Data reported in ChEMBL document CHEMBL1148131, “Efficacy of scopadulcic acid A against Plasmodium falciparum in vitro” (J Nat Prod, 2002).

Tests used:
Type in all cases: functional, organism-based
Plasmodium falciparum [1] = assay: Antimalarial activity against multidrug-resistant Plasmodium falciparum TM91C235 after 24 hrs by [3H]hypoxanthine uptake
Plasmodium falciparum [2] = assay: Antimalarial activity against Plasmodium falciparum W2 after 24 hrs by [3H]hypoxanthine uptake
Plasmodium falciparum [3] = assay: Antimalarial activity against Plasmodium falciparum D6 after 24 hrs by [3H]hypoxanthine uptake

SMILES | IC50 (Plasmodium falciparum [1]) | IC50 (Plasmodium falciparum [2]) | IC50 (Plasmodium falciparum [3])
OC(c1cc(C(F)(F)F)nc2c(C(F)(F)F)cccc12)C1CCCCN1 (centres undefined) [MEFLOQUINE] | 0.059 µM | – | –
C[C@]12CC[C@]3(C1)[C@H](CC2=O)C[C@@H](OC(=O)c1ccccc1)[C@H]1[C@@](CO)(C(=O)O)CCC[C@@]13C [SCOPADULCIC ACID A] | 23 µM | 19 µM | 27 µM
